Data from patent publication US20220280594A1, “APPLICATION OF POLYPEPTIDE OR DERIVATIVE THEREOF” (CHENGDU HUITAI BIOMEDICINE CO., LTD., priority 2019, published 2022).
Ends that are not written are not given here. PEG = not defined here

Experiments:
[1] = test system: human liver cancer cells (HepG2); experiment: scratch assay, migration of HepG2 cells; assay type: cell-based; settings: HepG2, 10 μM, 48 hours; control group 71.01 ± 6.63
Method: (§1) In the scratch assay, the cell migration rate was negatively correlated with the inhibitory effect of the drug component on tumor cell migration ability. The cell migration inhibition experiment was described as follows: tumor cells were cultured in vitro, cells in logarithmic growth phase were collected and seeded evenly in a 24-well plate at a density of 1-2×10^5 cells/well; the cells were cultured in a cell incubator until a monolayer was formed; a scratch tool was used to make a “-” (straight) scratch on the monolayer of cells; the cells were washed 1-3 times with PBS, and a medium (with 2% fetal bovine serum) containing specific test components was added to the culture. Experimental grouping: PBS control group; polypeptide or derivative thereof treatment group (N1-N54), 10 μM. Three independent parallel wells were set up in each group, and the cells were cultured continuously in a cell incubator for 48 hours. […] At least 3 representative images for each well were taken. ImageJ software was used to count the migration distance of the cells, and the cell migration rate was calculated as: cell migration rate (%)=(width of original scratch−width of current scratch)/width of original scratch×100.
This example was a scratch assay to evaluate the inhibitory effect of the polypeptide or derivative thereof (N1-N54) on the migration ability of human liver cancer cells (HepG2). The experimental method was as described in Example 2.

[2] = test system: human non-small cell lung cancer cells (A549); experiment: scratch assay, migration of A549 cells; assay type: cell-based; settings: A549, 10 μM, 48 hours; control group 75.31 ± 8.19
Method: as §1
This example was a scratch assay to evaluate the inhibitory effect of the polypeptide or derivative thereof (N1-N54) on the migration ability of human non-small cell lung cancer (A549). The experimental method was as described in Example 2.

[3] = test system: human breast cancer cells (MCF-7); experiment: scratch assay, migration of MCF-7 cells; assay type: cell-based; settings: MCF-7, 10 μM, 48 hours; control group 30.97 ± 1.79
Method: as §1
This example was a scratch assay to evaluate the inhibitory effect of the polypeptide or derivative thereof (N1-N54) on the migration ability of human breast cancer cells (MCF-7). The experimental method was as described in Example 2.

[4] = test system: human prostate cancer cells (22RV1); experiment: scratch assay, migration of 22RV1 cells; assay type: cell-based; settings: 22RV1, 10 μM, 48 hours; control group 25.41 ± 5.01
Method: as §1
This example was a scratch assay to evaluate the inhibitory effect of the polypeptide or derivative thereof (N1-N54) on the migration ability of human prostate cancer cells (22RV1). The experimental method was as described in Example 2.

[5] = test system: human lung cancer cells (A549) subcutaneous xenograft; experiment: lung cancer subcutaneous xenograft animal model, intravenous injection; assay type: in vivo, mice (BALB/c-nu/nu); settings: intravenous 60 mg/kg once every other day, 20 days; for Weight of tumor (g) (mean ± SD): control 2.53 ± 0.17; for Volume of tumor (mm^3) (mean ± SD): control 3373.26 ± 581.44
Method: Experimental animals: 4-6 weeks old female immunodeficiency mice (BALB/c-nu/nu, Beijing Vital River Laboratory Animal Technology Co., Ltd.).
Subcutaneous xenograft animal model. The number of cells inoculated subcutaneously vin mice was about 2×10^6/200 μL. When the volume of the subcutaneous tumor was greater than 100 mm^3, the mice were randomly divided into groups and subjected to treatment. When the mass volume of the tumors in model control group reached 2000 mm^3 or the animal dies, the treatment ended. The animals were dissected, the tumors were taken out, and the weight and volume of the tumors were measured. During the period of the entire experiment, the mice were observed and the body weight was measured every other day.
The method used in the efficacy test on the lung cancer subcutaneous xenograft animal model was as described in Example 5. The lung cancer cells were the human lung cancer cells (A549), and the route of administration was intravenous injection. This example involved a total of 3 experiments to evaluate N1-N15, N16-N30, and N31-N54 respectively. The experimental procedure, route of administration, dosage and frequency of administration, and detection method were all consistent in the three experiments. The experimental groups were model control group and polypeptide or derivative thereof treatment groups (N1-N15, N16-N30, or N31-N54). The drug dosage of the N1-N54 treatment groups was 60 mg/kg, and the treatment time was 20 days.

[6] = test system: human colon cancer cells (HCT-116); experiment: scratch assay, migration of HCT-116 cells; assay type: cell-based; settings: HCT-116, 10 μM, 48 hours; control group 47.78 ± 6.07
Method: as §1
This example was a scratch assay to evaluate the inhibitory effect of the polypeptide or derivative thereof (N1-N54) on the migration ability of human colon cancer cells (HCT-116). The experimental method was as described in Example 2.

[7] = test system: human breast cancer cells (MDA-MB-231); experiment: scratch assay, migration of MDA-MB-231 cells; assay type: cell-based; settings: MDA-MB-231, 10 μM, 48 hours; control group 36.19 ± 5.15
Method: as §1
This example was a scratch assay to evaluate the inhibitory effect of the polypeptide or derivative thereof (N1-N54) on the migration ability of human breast cancer cells (MDA-MB-231). The experimental method was as described in Example 2.

[8] = test system: human pancreatic cancer cells (PANC-1); experiment: transwell migration assay, PANC-1 cells; assay type: cell-based; settings: PANC-1 transwell migration, 10 μM, 24 hours; control group 360 ± 60
Method: The Transwell chamber system was used in the transwell cell migration experiment. The chamber has an upper layer and a lower layer, which are separated by an artificial semipermeable membrane in the middle. Cells that have migrated through the semi-permeable membrane will attach to the lower surface of the semi-permeable membrane. The migration ability is evaluated by counting the number of cells on the lower surface of the semi-permeable membrane. The number of cells that have migrated is negatively correlated with the inhibitory effect of the drug on the migration ability of the tumor cells. Transwell migration assay was performed as follows: tumor cells were cultured in vitro, cells in logarithmic growth phase were collected, and cell suspension was prepared with fresh serum-free medium at a density of 2-3×10^5 cells/mL. Cells were inoculated, 100 μL/well cell suspension (serum-free medium) in the upper chamber and 600 μL/well complete culture medium in the lower chamber. After incubated in 37° C., 5% CO2 incubator for 4-5 hours, serum-free medium (100 μL/well) was added to the control group, and serum-free medium containing polypeptide or derivative thereof (N1-N54) was added to the upper chamber of the treatment group (100 μL/well), the final concentration of the peptide or derivative thereof in the upper chamber was 10 μM. The cells were incubated continuously for 24 hours, and then fixed with methanol and stained with crystal violet. Images were taken under a microscope and the number of migrated cells was counted with ImageJ.
This example was a transwell cell migration experiment to evaluate the inhibitory effect of the polypeptide or derivative thereof (N1-N54) on the migration ability of human pancreatic cancer cells (PANC-1). The experimental method was as described in Example 3.

[9] = test system: human breast cancer cells (MDA-MB-453); experiment: scratch assay, migration of MDA-MB-453 cells; assay type: cell-based; settings: MDA-MB-453, 10 μM, 48 hours; control group 32.42 ± 2.04
Method: as §1
This example was a scratch assay to evaluate the inhibitory effect of the polypeptide or derivative thereof (N1-N54) on the migration ability of human breast cancer cells (MDA-MB-453). The experimental method was as described in Example 2.

| Substance | Migration rate (%) (mean ± SD, P) [1] | Migration rate (%) (mean ± SD, P) [2] | Migration rate (%) (mean ± SD, P) [3] | Migration rate (%) (mean ± SD, P) [4] | Weight of tumor (g) (mean ± SD) [5] | Volume of tumor (mm^3) (mean ± SD) [5] | Migration rate (%) (mean ± SD, P) [6] | Migration rate (%) (mean ± SD, P) [7] | Number of cells (mean ± SD, P), migrated cells [8] | Migration rate (%) (mean ± SD, P) [9] |
| --- | --- | --- | --- | --- | --- | --- | --- | --- | --- | --- |
| N52: SEQ ID NO: 1 with N18R, addition of two amino acids and PEG modification at the carboxyl terminal (YRVRFLAKENVTQDAEDRCT-{PEG}; reading uncertain) | 15.39 ± 7.19,*** % | 56.03 ± 4.21,* % | 7.23 ± 2.41,** % | 5.43 ± 1.97,** % | 0.7 ± 0.2 g | 1425.2 ± 555.76 mm^3 | 18.71 ± 3.59,** % | 13.19 ± 4.84,** % | 153 ± 16,*** | 13.87 ± 3.13,*** % |
| N48: SEQ ID NO: 1 with A7R, deletion of position 11 and position 18, PEG modification at the carboxyl terminal (YRVRFLRKENTQDAED-{PEG}; reading uncertain) | 25.43 ± 5.00,*** % | 22.04 ± 3.01,*** % | 15.62 ± 2.70,* % | 5.61 ± 3.14,** % | 0.71 ± 0.37 g | 1558.12 ± 436.42 mm^3 | 18.03 ± 4.62,** % | 13.06 ± 3.2,** % | 152 ± 18,*** | 12.62 ± 3.25,** % |
| N37: SEQ ID NO: 1 with addition of two amino acids to the carboxyl terminal and PEG modification at the amino terminal ({PEG}-YRVRFLAKENVTQDAEDNCT; reading uncertain) | 13.81 ± 6.14,*** % | 49.45 ± 10.09,* % | 8.64 ± 3.76,** % | 4.86 ± 1.91,** % | 0.89 ± 0.39 g | 915.97 ± 199.07 mm^3 | 4.99 ± 1.68,*** % | 20.43 ± 3.23,* % | 113 ± 11,*** | 15.13 ± 3.55,** % |
| N34: SEQ ID NO: 1 with A15R, addition of one amino acid at the carboxyl terminal, PEG modification at the amino terminal ({PEG}-YRVRFLAKENVTQDREDNC; reading uncertain) | 18.58 ± 7.87,*** % | 30.51 ± 8.12,** % | 15.23 ± 4.39,* % | 5.00 ± 2.29,** % | 1.06 ± 0.15 g | 1472.21 ± 914.38 mm^3 | 17.96 ± 3.84,** % | 17.34 ± 4.82,* % | 248 ± 19,* | 9.57 ± 3.68,*** % |
| N8: SEQ ID NO: 1 with deletion of positions 15-18 and positions 3, 4 and 11 (YRFLAKENTQD) | 18.65 ± 6.88,*** % | 32.62 ± 5.83,** % | 11.56 ± 2.35,** % | 8.75 ± 1.98,** % | 1.02 ± 0.21 g | 1359.06 ± 275.17 mm^3 | 16.96 ± 3.87,** % | 19.02 ± 3.53,* % | 133 ± 20,*** | 9.44 ± 2.09,*** % |
| N28: SEQ ID NO: 1 with deletion of positions 1-2 and 18 and PEG modification at the amino terminal ({PEG}-VRFLAKENVTQDAED; reading uncertain) | 12.25 ± 8.40,*** % | 17.20 ± 6.23,*** % | 14.83 ± 5.38,* % | 15.63 ± 2.59,* % | 0.91 ± 0.21 g | 1286.52 ± 344.21 mm^3 | 9.19 ± 3.22,*** % | 9.36 ± 1.8,** % | 148 ± 21,*** | 11.32 ± 5.61,** % |
| N7: SEQ ID NO: 1 with addition of one amino acid at the carboxyl terminal and substitution A15R (YRVRFLAKENVTQDREDNC) | 11.54 ± 9.00,*** % | 48.64 ± 3.10,** % | 12.59 ± 3.23,** % | 6.54 ± 2.24,** % | 0.81 ± 0.15 g | 1189.39 ± 200.83 mm^3 | 20.09 ± 2.41,** % | 21.04 ± 2.46,* % | 132 ± 15,*** | 12.64 ± 2.73,** % |
